Legend:
[1] = Distribution in mouse brain tissue; assay type: in vivo, C57 mice
Procedure: Healthy male C57 mice were randomly divided into groups with 3 mice in each group, and the test compound was administrated intragastrically. See Table 10 below for specific arrangements:
(§1) Each test compound was dissolved in physiological saline to prepare a certain concentration of solution for administration.
One day before administration, the mice were fasted and allowed to drink freely for 12-14 h. The mice were fed 4 h after administration.
After the animals were bled, the brain tissue was collected. After washing, 50% ice methanol was added for homogenate at 1:4 (m/v). The collection time points was 10 min, 15 min, 30 min, 1 h, 2 h after administration of the test substance; 30.0 μL of tissue sample was taken (the sample was taken out from the refrigerator at −80° C., vortexed for 30 seconds after natural melting at room temperature) and added into a 1.5 mL centrifuge tube. 300.0 μL internal standard solution (30 ng/mL […] acetonitrile solution) was added, the mixture was vortex for 60 seconds and then centrifuged for 3 minutes (centrifugal force was 12000 rpm); 75 μL of the supernatant was taken and transferred to 96-well injection plate loaded with equal volume of water, shaken and mixed well, and subjected to LC-MS/MS analysis, wherein injection volume was 10 μL.

[2] = In vivo pharmacokinetic experiment in rats; details: SD rats
Procedure: Healthy male SD rats were randomly divided into groups with 3 rats in each group, and the test compounds were administrated intragastrically or by intravenous injection. See Table 8 below for specific arrangements:
as §1
One day before administration, the rats were fasted and allowed to drink freely for 12-14 h. The rats were fed 4 h after administration. 0.030 mL of blood was took from each animal each time through the orbit, and anticoagulated with EDTAK2 anticoagulation. The collection time points were as follows: in PO group, 5 min, 10 min, 15 min, 30 min, 1 h, 2 h, 4 h, 6 h, 8 h, 24 h after administration of test substance; in IV group, 2 min, 5 min, 15 min, 30 min, 1 h, 2 h, 4 h, 6 h, 8 h, 24 h after administration of test substance. After blood samples were collected, they were placed on ice and centrifuged to separate the plasma within 30 minutes (centrifugation conditions: 5000 rpm, 10 minutes, 4° C.). The sample were stored at −80° C. before analysis.

hERG potassium channel = target: T1, hERG potassium channel (Homo sapiens, UniProt Q12809); test: hERG potassium channel inhibition experiment (automatic patch clamp, CHO-hERG cells); assay type: cell-based; details: Qpatch, highest tested concentration 40 μM, read-out: IC50, blocking effect on the hERG potassium current
T1 construct: expressed in transfected cells
Procedure: Fully automatic patch clamps were used to test the blocking effect of the compounds of the present invention on the hERG potassium current on a stable cell line transfected with hERG potassium channels.
CHO-hERG cells were cultured in 175 cm^2 culture flask. When the cell grew to 60-80% confluence, the culture medium was removed. The cells were washed with 7 ml PBS (Phosphate Buffered Saline) once, and then 3 ml Detachin was added to digest.
After the digestion was completed, 7 ml culture medium was added to neutralize. The mixture was centrifuged, and after the supernatant was removed, 5 ml culture medium was added to resuspend to ensure the cell density was 2×10^6-5×10^6/ml.
Single-cell high-impedance sealing and whole-cell mode formation were all automatically completed by using the Qpatch instrument. After the recording mode was obtained, the cell was clamped at −80 millivolts. Before +40 millivolt depolarization stimulation for 5 seconds was given, −50 millivolt pre-voltage for 50 millisecond was first given, then repolarized to −50 millivolt for 5 seconds, and then returned to −80 millivolt. This voltage stimulus was applied every 15 seconds. After recording for 2 min, extracellular fluid was given, and recording was conducted for 5 min, and then the dosing process started. The compound concentration started from the lowest test concentration, and each test concentration was given for 2.5 min. […] At least 3 cells per concentration (n≥3) were tested.
20 mM compound mother liquor was diluted with extracellular fluid. 5 μL of 20 mM compound mother liquor was taken and added into 2495 μL extracellular fluid, so that it was diluted 500 times to 40 μM, and was then serially diluted 3 times in an extracellular fluid containing 0.2% DMSO to obtain the final concentration to be tested.
The highest tested concentration was 40 μM, and the concentrations were in order as follows: 40, 13.33, 4.44, 1.48, 0.49, 0.16 μM, totally 6 concentrations.
Experimental data were analyzed by XLFit software.

[3] = In vivo pharmacokinetic experiment in mice; details: C57 mice
[4] = male, rat, iv, 5 mg/kg i.v., plasma
[5] = male, rat, po, 20 mg/kg p.o., plasma
[6] = male, mouse, iv, 5 mg/kg i.v., plasma
[7] = male, mouse, po, 20 mg/kg p.o., plasma

T1 sequence (Q12809 whole entry): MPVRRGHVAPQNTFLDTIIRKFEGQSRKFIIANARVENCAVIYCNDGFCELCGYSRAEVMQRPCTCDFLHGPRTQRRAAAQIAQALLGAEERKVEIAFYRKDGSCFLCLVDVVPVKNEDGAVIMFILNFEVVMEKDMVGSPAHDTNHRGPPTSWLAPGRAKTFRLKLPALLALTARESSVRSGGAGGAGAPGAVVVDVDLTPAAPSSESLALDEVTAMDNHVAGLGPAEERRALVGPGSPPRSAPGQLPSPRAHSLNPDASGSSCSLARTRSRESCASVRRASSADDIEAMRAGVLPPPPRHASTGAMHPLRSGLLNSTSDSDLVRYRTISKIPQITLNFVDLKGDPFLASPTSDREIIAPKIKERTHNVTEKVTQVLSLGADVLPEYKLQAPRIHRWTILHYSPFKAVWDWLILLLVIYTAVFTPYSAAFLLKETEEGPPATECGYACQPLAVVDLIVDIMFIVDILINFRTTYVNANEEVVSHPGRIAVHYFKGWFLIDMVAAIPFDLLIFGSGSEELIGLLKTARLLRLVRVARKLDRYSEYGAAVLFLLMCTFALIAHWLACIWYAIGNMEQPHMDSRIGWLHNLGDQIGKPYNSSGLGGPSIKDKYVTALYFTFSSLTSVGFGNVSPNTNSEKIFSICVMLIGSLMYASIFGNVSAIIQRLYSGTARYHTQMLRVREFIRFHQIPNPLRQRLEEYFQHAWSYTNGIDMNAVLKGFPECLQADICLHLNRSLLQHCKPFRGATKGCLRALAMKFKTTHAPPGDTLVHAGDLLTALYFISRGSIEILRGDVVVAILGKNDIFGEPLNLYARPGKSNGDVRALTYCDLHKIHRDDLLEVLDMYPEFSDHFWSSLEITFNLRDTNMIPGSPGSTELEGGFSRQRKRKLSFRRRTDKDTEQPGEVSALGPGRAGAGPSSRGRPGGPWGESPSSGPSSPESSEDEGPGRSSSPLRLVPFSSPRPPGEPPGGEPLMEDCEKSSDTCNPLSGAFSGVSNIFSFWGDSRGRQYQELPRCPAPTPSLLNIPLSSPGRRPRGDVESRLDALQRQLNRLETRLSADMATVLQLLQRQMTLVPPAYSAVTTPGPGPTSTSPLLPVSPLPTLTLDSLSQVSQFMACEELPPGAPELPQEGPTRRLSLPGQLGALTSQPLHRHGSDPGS

Cl.N[C@]1(c2ccc(C(F)(F)F)cc2)CCC[C@H](O)C1=O [Compound 51, (2S,6S)-2-amino-6-hydroxy-2-(4-(trifluoromethyl)phenyl)cyclohexane-1-one hydrochloride]
AUC0-∞ ([1]; C57 mouse brain tissue, 20 mg/kg p.o.): 46324 ng·h/g | concentration at 15 min ([1]; male, brain, po, C57 mouse, 10 mg/kg p.o., 15 min): 5090 ng/g | concentration at 10 min ([1]; male, brain, po, C57 mouse, 20 mg/kg p.o. (intragastrically), 10 min): 23500 ng/g | half-life ([1]; male, po, C57 mouse brain tissue, 20 mg/kg p.o.): 81.6 min | AUC0-t ([2]; 5 mg/kg i.v., plasma): 19871 ngh/mL | AUC0-∞ ([2]; 5 mg/kg i.v., plasma): 20688 ngh/mL | F ([2]; 20 mg/kg p.o.): 86% | AUC0-t ([2]; 20 mg/kg p.o., plasma): 68383 ngh/mL | AUC0-∞ ([2]; 20 mg/kg p.o., plasma): 70298 ngh/mL | MRT [2, 4]: 6.15 h | half-life [2, 4]: 336 min | clearance ([2]; male, rat, plasma, iv, 5 mg/kg i.v.): 4.03 mL/min/kg | Vd ([2]; male, rat, plasma, iv, 5 mg/kg i.v., read-out: Vss): 1.49 L/kg | Cmax [2, 5]: 9350 ng/mL | MRT [2, 5]: 6.21 h | Tmax [2, 5]: 19.8 min | half-life [2, 5]: 284 min | IC50 (hERG potassium channel): > 40 µM | AUC0-t ([3]; 5 mg/kg i.v., plasma): 6471 ngh/mL | AUC0-∞ ([3]; 5 mg/kg i.v., plasma): 6567 ngh/mL | F ([3]; 20 mg/kg p.o. vs 5 mg/kg i.v.): 68.0% | AUC0-t ([3]; 20 mg/kg p.o., plasma): 17539 ngh/mL | AUC0-∞ ([3]; 20 mg/kg p.o., plasma): 17877 ngh/mL | MRT [3, 6]: 1.23 h | half-life [3, 6]: 107 min | clearance ([3]; male, mouse, plasma, iv, 5 mg/kg i.v.): 13.5 mL/min/kg | Vd ([3]; male, mouse, plasma, iv, 5 mg/kg i.v., read-out: Vss): 0.98 L/kg | Cmax [3, 7]: 7520 ng/mL | MRT [3, 7]: 3.59 h | Tmax [3, 7]: 5 min | half-life [3, 7]: 245 min

— US12351565B2, “Aromatic compound and preparation method therefor and use thereof” (SHANGHAI JIANHE PHARMACEUTICAL & TECHNOLOGY CO. LTD., priority 2018, dated 2025)
